Results published in patent US20210353648A1, “GRAPIPRANT UNIT DOSAGE FORMS” (Arrys Therapeutics, Inc., priority 2018, published 2021).

What was measured:
Format in all cases: in vivo, BALB/c mice
[1] = test system: CT-26 mouse colon adenocarcinoma model; assay: Anti-tumor activity in the CT-26 colon adenocarcinoma mouse model, alone and with anti-PD-1
Protocol: The antitumor activity of Compound B as a single agent and combined with a mouse anti-PD-1 antibody was evaluated in the CT-26 mouse colon adenocarcinoma model grown in BALB/c mice. Mice were inoculated subcutaneously in the right flank with 5×10^5 tumor cells. When tumors reached an average size of 71 mm^3 (6 days after tumor cell inoculation) dosing was initiated. The dosing regimens in the 8 separate cohorts comprising 10 mice each are as follows: […]

[2] = test system: CT-26 tumors; assay: Immune cell composition of CT-26 tumors by flow cytometry; conditions: after 7 days dosing; Compound B 15 mg/kg BID, anti-PD-1 10 mg/kg Q3D; versus vehicle
Protocol: The immune cell composition of Compound B (as described in example 9 above) as a single agent and combined with a mouse anti-PD1 antibody was evaluated in the CT-26 mouse colon adenocarcinoma model grown in BALB/c mice. Mice were inoculated subcutaneously in the right flank with 5×10^5 tumor cells. When tumors reached an average size of 85 mm^3 dosing was initiated. The dosing regimens in the 4 separate cohorts comprising 10 mice each are listed as follows:
After dosing animals for 7 days, tumors were resected and used to prepare single cell suspensions. Live cells representing tumor and immune cells were stained with cocktails of antibodies targeting multiple immune cell markers (anti-CD45, anti-CD3, anti-CD4, anti-CD8, anti-CD25, anti-FoxP3, anti-PD-1, anti-CD11c) conjugated to different fluorescent tags. The stained cells were fixed in 4% paraformaldehyde and quantified using a multi-color flow cytometer (Fortessa). The data was analyzed with FloJo software.

[3] = test system: 4T1 mouse breast cancer model; assay: Anti-tumor activity in the 4T1 model, additional experiment with anti-PD1; conditions: Compound B 15 mg/kg BID single agent, n=7/group
Protocol: (§1) The antitumor activity of Compound B as a single agent and combined with a mouse anti-PD1 antibody was evaluated in the 4T1 mouse breast cancer model grown in BALB/c mice in an additional experiment. Mice were inoculated subcutaneously in the right flank with 3×10^5 tumor cells. When tumors reached an average size of 97 mm^3 dosing was initiated. The dosing regimens in the 4 separate cohorts comprising 7 mice each are as follows: […]

[4] = test system: 4T1 mouse breast cancer model; assay: Anti-tumor activity in the 4T1 breast cancer mouse model, alone and with anti-CTLA4
Protocol: The antitumor activity of Compound B (as described in example 9 above) as a single agent and combined with a mouse anti-CTLA4 antibody was evaluated in the 4T1 mouse breast cancer model grown in BALB/c mice. Mice were inoculated subcutaneously in the right flank with 3×10^5 tumor cells. When tumors reached an average size of 100 mm^3 (7 days after tumor cell inoculation) dosing was initiated.

[5] = test system: CT-26 mouse colon adenocarcinoma model; assay: Anti-tumor activity in the CT-26 model, additional experiment with anti-PD1; conditions: single agents (Compound B 15 mg/kg BID; anti-PD1 10 mg/kg BIW) versus vehicle, n=7/group
Protocol: as §1, with “CT-26” for “4T1”, “colon adenocarcinoma” for “breast cancer”, “5×10^5” for “3×10^5”, “91” for “97”

SMILES: C[C@H](NC(=O)c1cc(Cl)cnc1Oc1cccc(F)c1)c1ccc(C(=O)O)cc1 [Compound B]
- tumor growth kinetics during the period of dosing ([1]; 15 mg/kg QD and BID p.o., single agent, versus vehicle, n=10/group): not notably different from the vehicle treated mice
- mice still alive ([1]; 99 days after tumor inoculation): 1 out of 10 mice
- tumor free mice ([1]; 99 days after tumor inoculation, 10 mice per group): 1 mice
- percentage of activated T cells (CD45, CD3, CD8; CD25 expression) [2]: did not
- percentage of dendritic cells (CD45, CD11c positive) [2]: increased percentage
- regulatory T cells (CD45, CD4, FoxP3, CD25 positive) [2]: significant decrease
- tumor growth kinetics during the period of dosing [3]: less than that of the vehicle group and anti-PD1 when dosed alone
- mice still alive ([4]; 47 days after tumor inoculation): none
- tumor growth kinetics during the period of dosing ([4]; single agents (Compound B 15 mg/kg BID; anti-CTLA4) versus vehicle, n=10/group): decreased relative to the vehicle treated mice
- tumor growth kinetics during the period of dosing [5]: less than that of the vehicle group
